Assay results published in the CheMixHub viscosity set.

Experiment: xn = mol fraction of the nth substance listed

CCC(C)CC(C)C (stereo not drawn) + C1C[C@@H]2[C@H]3CC[C@H](C3)[C@@H]2C1
viscosity [mPa·s], 100 kPa
Details | x2 = 0.1017 | x2 = 0.2008 | x2 = 0.3005 | x2 = 0.4002 | x2 = 0.5006 | x2 = 0.6001 | x2 = 0.7001 | x2 = 0.8012 | x2 = 0.8999
293.15 K | 0.538 | 0.616 | 0.717 | 0.847 | 1.007 | 1.216 | 1.478 | 1.84 | 2.322
298.15 K | 0.511 | 0.582 | 0.674 | 0.792 | 0.937 | 1.126 | 1.361 | 1.685 | 2.114
303.15 K | 0.487 | 0.552 | 0.636 | 0.744 | 0.876 | 1.048 | 1.261 | 1.552 | 1.937
308.15 K | 0.465 | 0.524 | 0.602 | 0.7 | 0.822 | 0.979 | 1.171 | 1.435 | 1.781
313.15 K | 0.445 | 0.5 | 0.571 | 0.662 | 0.772 | 0.916 | 1.092 | 1.331 | 1.645

O=CNc1ccccc1 + c1ccncc1
298.15 K, 101 kPa
Details | viscosity [mPa·s]
x1 = 0.06989 | 1.089
x1 = 0.1339 | 1.335

C1CCCC1 + CC(C)=O
viscosity [mPa·s], 101.33 kPa
Details | 293.15 K | 298.15 K | 303.15 K
x1 = 0.0453 | 0.318 | 0.308 | 0.29
x1 = 0.0935 | 0.319 | 0.304 | 0.291
x1 = 0.1869 | 0.319 | 0.304 | 0.289
x1 = 0.2786 | 0.324 | 0.309 | 0.294
x1 = 0.3922 | 0.333 | 0.318 | 0.303
x1 = 0.517 | 0.344 | 0.327 | 0.311
x1 = 0.6026 | 0.357 | 0.338 | 0.321
x1 = 0.6876 | 0.367 | 0.347 | 0.332
x1 = 0.795 | 0.385 | 0.365 | 0.347
x1 = 0.9016 | 0.408 | 0.39 | 0.37
x1 = 0.9511 | 0.419 | 0.397 | 0.377

C=CCc1ccc2c(c1)OCO2 + CCCCCOC(C)=O
298.15 K, 101 kPa
Details | viscosity [mPa·s]
x1 = 0.053 | 0.833
x1 = 0.232 | 1.01

C1CCCC1 + C1CCCCC1
303.15 K, 101 kPa
Details | viscosity [mPa·s]
x1 = 0.1022 | 0.7604
x1 = 0.2029 | 0.6988
x1 = 0.2998 | 0.6457
x1 = 0.3944 | 0.599
x1 = 0.4949 | 0.5545
x1 = 0.5917 | 0.5159
x1 = 0.6949 | 0.4788
x1 = 0.7843 | 0.4494
x1 = 0.8966 | 0.4147

c1ccc(-c2ccccc2)cc1 + CCCCCOC(C)=O
298.15 K, 101 kPa
Details | viscosity [mPa·s]
x1 = 0.0249 | 0.803
x1 = 0.0367 | 0.8121

CCC(=O)CC + CC(=O)CC(C)C
298.15 K, 101 kPa
Details | viscosity [mPa·s]
x2 = 0.0749 | 0.581
x2 = 0.1609 | 0.575
x2 = 0.3004 | 0.571
x2 = 0.4466 | 0.566
x2 = 0.5932 | 0.562
x2 = 0.7509 | 0.558
x2 = 0.8066 | 0.553
x2 = 0.8789 | 0.548

[Br-].[Na+] + OCCO
101 kPa, x1 = 0.142
Details | viscosity [mPa·s]
303 K | 39.03
313 K | 25.16
323 K | 17.24

C1CCCC1 + CC(C)O
101 kPa
Details | viscosity [mPa·s]
298.15 K, x1 = 0.0779 | 1.686
298.15 K, x1 = 0.1506 | 1.405
298.15 K, x1 = 0.1861 | 1.302
298.15 K, x1 = 0.2303 | 1.179
298.15 K, x1 = 0.26 | 1.129
298.15 K, x1 = 0.3112 | 1.009
298.15 K, x1 = 0.3879 | 0.8567
298.15 K, x1 = 0.4568 | 0.7573
298.15 K, x1 = 0.5489 | 0.6423
298.15 K, x1 = 0.6378 | 0.5548
298.15 K, x1 = 0.7196 | 0.5314
298.15 K, x1 = 0.8237 | 0.455
298.15 K, x1 = 0.9124 | 0.4265
308.15 K, x1 = 0.0365 | 1.373
308.15 K, x1 = 0.081 | 1.28
308.15 K, x1 = 0.1332 | 1.125
308.15 K, x1 = 0.1521 | 1.101
308.15 K, x1 = 0.1757 | 1.034
308.15 K, x1 = 0.1856 | 1.015
308.15 K, x1 = 0.2382 | 0.9575
308.15 K, x1 = 0.2694 | 0.9099
308.15 K, x1 = 0.3483 | 0.7902
308.15 K, x1 = 0.3863 | 0.7261
308.15 K, x1 = 0.4288 | 0.6806
308.15 K, x1 = 0.478 | 0.6312
308.15 K, x1 = 0.5296 | 0.5689
308.15 K, x1 = 0.5891 | 0.5186
308.15 K, x1 = 0.6269 | 0.4877
308.15 K, x1 = 0.6889 | 0.4468
308.15 K, x1 = 0.7 | 0.4437
308.15 K, x1 = 0.7248 | 0.4309
308.15 K, x1 = 0.7619 | 0.4179
308.15 K, x1 = 0.98 | 0.3745
308.15 K, x2 = 0.0108 | 0.3641

C1CCCC1 + CCCO
101.3 kPa
Details | viscosity [mPa·s]
298.15 K, x1 = 0.0126 | 1.899
298.15 K, x1 = 0.0784 | 1.708
298.15 K, x1 = 0.1149 | 1.602
298.15 K, x1 = 0.1574 | 1.49
298.15 K, x1 = 0.1979 | 1.385
298.15 K, x1 = 0.2531 | 1.254
298.15 K, x1 = 0.289 | 1.17
298.15 K, x1 = 0.3309 | 1.085
298.15 K, x1 = 0.3663 | 1.017
298.15 K, x1 = 0.3847 | 0.982
298.15 K, x1 = 0.3986 | 0.959
298.15 K, x1 = 0.4161 | 0.924
298.15 K, x1 = 0.4387 | 0.888
298.15 K, x1 = 0.4706 | 0.839
298.15 K, x1 = 0.4885 | 0.807
298.15 K, x1 = 0.5064 | 0.781
298.15 K, x1 = 0.5132 | 0.772
298.15 K, x1 = 0.5396 | 0.739
298.15 K, x1 = 0.5459 | 0.726
298.15 K, x1 = 0.557 | 0.709
298.15 K, x1 = 0.563 | 0.703
298.15 K, x1 = 0.5899 | 0.673
298.15 K, x1 = 0.6188 | 0.639
298.15 K, x1 = 0.6413 | 0.615
298.15 K, x1 = 0.6734 | 0.587
298.15 K, x1 = 0.7116 | 0.552
298.15 K, x1 = 0.7421 | 0.529
298.15 K, x1 = 0.7853 | 0.497
298.15 K, x1 = 0.8171 | 0.478
298.15 K, x1 = 0.8537 | 0.458
298.15 K, x1 = 0.9793 | 0.412
308.15 K, x1 = 0.0566 | 1.511
308.15 K, x1 = 0.0958 | 1.374
308.15 K, x1 = 0.1491 | 1.257
308.15 K, x1 = 0.1968 | 1.105
308.15 K, x1 = 0.2217 | 0.997
308.15 K, x1 = 0.2344 | 0.927
308.15 K, x1 = 0.2399 | 0.886
308.15 K, x1 = 0.2558 | 0.874
308.15 K, x1 = 0.2708 | 0.851
308.15 K, x1 = 0.2943 | 0.815
308.15 K, x1 = 0.3274 | 0.772
308.15 K, x1 = 0.3677 | 0.719
308.15 K, x1 = 0.4171 | 0.659
308.15 K, x1 = 0.4901 | 0.582
308.15 K, x1 = 0.5698 | 0.516
308.15 K, x1 = 0.6573 | 0.457
308.15 K, x1 = 0.7599 | 0.415
308.15 K, x1 = 0.8996 | 0.392
318.15 K, x1 = 0.0747 | 1.139
318.15 K, x1 = 0.1126 | 1.074
318.15 K, x1 = 0.2293 | 0.876
318.15 K, x1 = 0.2845 | 0.769
318.15 K, x1 = 0.3533 | 0.654
318.15 K, x1 = 0.4 | 0.597
318.15 K, x1 = 0.4414 | 0.539
318.15 K, x1 = 0.4892 | 0.491
318.15 K, x1 = 0.4949 | 0.484
318.15 K, x1 = 0.5432 | 0.445
318.15 K, x1 = 0.5458 | 0.443
318.15 K, x1 = 0.5813 | 0.429
318.15 K, x1 = 0.6285 | 0.412
318.15 K, x1 = 0.6942 | 0.407
318.15 K, x1 = 0.7867 | 0.402
318.15 K, x1 = 0.8912 | 0.393
